Results: publication PMC12935919 (Frontiers in Pharmacology, 2026)

System: C2C12 myotubes
Assay: DEX-induced muscle atrophy model, Western blot
Type: cell-based
Settings: 10 μM DEX 24 h, alone or with 10 or 100 μM Myoki
Protocol: To induce C2C12 myotube differentiation, myoblasts were seeded in 6-well plates at 5 × 10^5 cells per well. Once reaching 90% confluency, they were cultured in DMEM supplemented with 2% horse serum (Thermo Fisher Scientific) and 1% penicillin-streptomycin. […] Differentiation was observed using an optical microscope (LEICA, 100×). Myotube morphology (length and diameter) was quantified in ImageJ (NIH) using the same images: myotube length was measured by tracing the long axis of each myotube (end-to-end), and myotube diameter was measured as the short-axis width at three positions along each myotube; the mean of the three width values was recorded as the diameter. For each experimental group, three randomly captured images (fields) were analyzed, and at least 15–20 myotubes per image were quantified under identical imaging settings.
Treated C2C12 cells (5 × 10^5 cells/well) were harvested in lysis buffer (Sigma-Aldrich, 2910) and centrifuged at 12,000 g for 10 min; proteins in the supernatant were collected. Protein concentrations were measured using the BCA Protein Assay Kit (Thermo Fisher Scientific). Each 20 μg sample was separated using 10% SDS–PAGE and transferred onto a polyvinylidene fluoride membrane (Millipore, Burlington, MA, USA). Non-specific binding was blocked with 5% non-fat dry milk for 1 h. The membranes were incubated overnight with primary antibodies: Anti-Myf5 (Abcam, ab125078), Anti-Myf6 (Abcam, ab182842), Anti-MyoD (Santa Cruz, sc-377460), Anti-MyoG (Santa Cruz, sc-52903), Anti-α-actinin (Santa Cruz, sc-17829), Anti-MYH3 (Santa Cruz, sc-53091), Anti-p-mTOR (Ser2448) (CST, #5536), Anti-p-Akt (Ser473) (CST, #9271), Anti-p-p70 S6 Kinase (Thr389) (CST, #9205), Anti-myostatin (Abcam, ab124721), Anti-atrogin-1/MAFbx (Santa Cruz, sc-166806), and Anti-MuRF1 (Santa Cruz, sc-398608). Membranes were then incubated for 1 h with HRP-conjugated secondary antibodies. Blot images were captured with the ECL system (Amersham, UK) and quantified using ImageJ.

C[C@@H]1C[C@H]2[C@@H]3CCC4=CC(=O)C=C[C@]4(C)[C@@]3(F)[C@@H](O)C[C@]2(C)[C@@]1(O)C(=O)CO [DEX, dexamethasone, reference compound]
MuRF1 expression: significant increase
atrogin-1/MAFbx expression: significant increase
expression levels of differentiated muscle fiber structural proteins: significantly reduced
phosphorylation levels of muscle growth signaling proteins (Akt, mTOR, p70S6K): significantly reduced
